Experiments:
[1] = biological target: Apoptosis regulator Bcl-2 (Homo sapiens, UniProt P10415); assay: Molecular Level Activity Test of Anti-Apoptotic Protein BCL2
Experimental: (§1) The detection of the binding ability between anti-apoptotic protein BCL2 and pro-apoptotic protein Bim was performed using Homogeneous Time-Resolved Fluorescence technology. The reaction of this method occurred in a white shallow 384-well plate, with a total reaction volume of 10 μL. Specifically, it included 2 μL of the compound to be tested (2% DMSO), 4 μL His-tagged recombinant protein, and 4 μL Biotin-tagged BIM protein peptide. After 1 hour of reaction, 5 μL of each Anti-His and streptavidin-tagged XL665 antibody diluents diluted with a detection buffer were added. After incubating at room temperature for 4 hours, the values were read using the Envision multifunctional microplate reader to detect the effect of the compound to be tested on the binding ability of BCL2 to Bim protein peptides. The Envision parameter settings were exciting light at 320 nm, and emitting light at 615 nm and 665 nm. The binding ability of anti-apoptotic proteins to Bim protein peptides was indirectly reflected by the signal ratio of 665 nm and 615 nm. In the reaction, background wells without BCL2 and active wells for full binding of recombinant proteins without compounds and Bim protein peptides were set up.

[2] = biological target: Isoform Bcl-X(L) of Bcl-2-like protein 1 (Bcl-xL) (Homo sapiens, UniProt Q07817); assay: BCL-XL Enzyme Molecular Level Activity Test
Sequence of Isoform Bcl-X(L) of Bcl-2-like protein 1 (Bcl-xL) (Q07817 whole entry G70A, canonical isoform): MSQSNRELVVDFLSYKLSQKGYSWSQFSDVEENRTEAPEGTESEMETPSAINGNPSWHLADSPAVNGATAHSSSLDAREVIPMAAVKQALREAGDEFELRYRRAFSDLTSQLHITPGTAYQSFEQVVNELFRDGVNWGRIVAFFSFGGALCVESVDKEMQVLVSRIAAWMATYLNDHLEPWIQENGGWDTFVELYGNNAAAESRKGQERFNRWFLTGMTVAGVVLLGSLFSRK
Experimental: as §1, with “In a white” for “The detection of the binding ability between anti-apoptotic protein BCL2 and pro-apoptotic protein Bim was performed using Homogeneous Time-Resolved Fluorescence technology. The reaction of this method occurred in a white”, “384-well plate, a total” for “384-well plate, with a total”, “reaction volume was 10 μL.” for “reaction volume of 10 μL.”, “DMSO), […] His-tagged recombinant” for “DMSO), 4 μL His-tagged recombinant”, “ability of BCL-XL to BIM” for “ability of BCL2 to Bim”, “BCL-XL to BIM protein peptides.” for “BCL2 to Bim protein peptides.”

[3] = biological target: Apoptosis regulator Bcl-2 [G101V] (Homo sapiens, UniProt P10415, G101V); assay: Molecular Level Activity Test of Anti-Apoptotic Protein BCL2 (G101V)
Experimental: as §1, with “protein BCL2 (G101V) and pro-apoptotic” for “protein BCL2 and pro-apoptotic”, “reaction, 5 L of each” for “reaction, 5 μL of each”, “of BCL2 (G101V) to BIM” for “of BCL2 to Bim”, “(G101V) to BIM protein peptides.” for “BCL2 to Bim protein peptides.”

CYP3A4 = CYP3A4 (Homo sapiens, UniProt P08684); assay: CYP3A4 Enzyme Inhibitory Activity; settings: recombinant CYP3A4 (CYP450 BACULOSOMES Plus reagent), probe Vivid substrate (Vivid CYP3A4 Green kit)
Sequence of CYP3A4 (P08684 whole entry): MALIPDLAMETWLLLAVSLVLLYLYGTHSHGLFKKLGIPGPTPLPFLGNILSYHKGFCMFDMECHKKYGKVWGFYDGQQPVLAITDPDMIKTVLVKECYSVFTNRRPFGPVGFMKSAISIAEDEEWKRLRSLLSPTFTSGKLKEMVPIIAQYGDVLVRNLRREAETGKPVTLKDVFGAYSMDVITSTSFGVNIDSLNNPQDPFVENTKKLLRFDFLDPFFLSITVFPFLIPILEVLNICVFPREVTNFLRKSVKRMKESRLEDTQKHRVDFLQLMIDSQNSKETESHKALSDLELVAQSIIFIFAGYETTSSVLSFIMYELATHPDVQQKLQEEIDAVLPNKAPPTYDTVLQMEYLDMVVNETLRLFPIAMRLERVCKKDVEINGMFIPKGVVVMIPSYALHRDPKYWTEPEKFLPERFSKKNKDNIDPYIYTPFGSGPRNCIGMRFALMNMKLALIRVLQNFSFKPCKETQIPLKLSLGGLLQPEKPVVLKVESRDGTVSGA
Experimental: The inhibitory activity of compounds on human CYP3A4 enzyme was detected using a VIVID™ CYP3A4 GREEN SCRNING KIT reagent kit. The Vivid™ CYP450 screening kit includes a Vivid™ substrate, Vivid™ fluorescence standard, reaction buffer, Vivid™ regeneration system, NADP+ and CYP450 BACULOSOMES™ Plus reagent. Operations were performed following the instructions, and a blank control group was set up without adding any compounds.

SMILES	IC50 [1]	IC50 [2]	further results
CC(C)c1ccccc1[C@@H]1CCCN1C1CC2(CCN(c3ccc(C(=O)NS(=O)(=O)c4cc([N+](=O)[O-])c(NCC5(F)CCN(C(C)C)CC5)c5c4ncn5C)c(Oc4cnc5[nH]ccc5c4)c3)CC2)C1 [US20250034135, Compound 008]	< 10 nM	–	–
CC(C)c1ccccc1[C@@H]1CCCN1C1CC2(CCN(c3ccc(C(=O)NS(=O)(=O)c4cc([N+](=O)[O-])c(NCC5(F)CCN(C6COC6)CC5)c5[nH]cnc45)c(Oc4cnc5[nH]cc(F)c5c4)c3)CC2)C1 [US20250034135, Compound 012]	< 10 nM	–	–
CC(C)c1ccccc1[C@@H]1CCCN1C1CC2(CCN(c3cc(Oc4cnc5[nH]ccc5c4)c(C(=O)NS(=O)(=O)c4cc([N+](=O)[O-])c(NCC5(F)CCN(C6COC6)CC5)c5[nH]cnc45)cc3F)CC2)C1 [US20250034135, Compound 020]	< 10 nM	–	–
CC(C)c1ccccc1[C@@H]1CCCN1C1CC2(CCN(c3cc(Oc4cnc5[nH]ccc5c4)c(C(=O)NS(=O)(=O)c4cc([N+](=O)[O-])c(NCC5(F)CCN(C6COC6)CC5)c5c4ncn5C)cc3F)CC2)C1 [US20250034135, Compound 036]	< 10 nM	–	–
CC(C)c1ccccc1[C@@H]1CCCN1C1CC2(CCN(c3cc(Oc4cnc5[nH]cc(F)c5c4)c(C(=O)NS(=O)(=O)c4cc([N+](=O)[O-])c(NCC5(F)CCN(C6COC6)CC5)c5[nH]cnc45)cc3F)CC2)C1 [US20250034135, Compound 038]	< 10 nM	–	–
COc1ccc(CN2CCN(C3CC4(C3)CN(c3cc(Oc5cnc6[nH]ccc6c5)c(C(=O)NS(=O)(=O)c5ccc(NCC6(F)CCN(C7COC7)CC6)c([N+](=O)[O-])c5)cc3F)C4)C(c3ccccc3C(C)C)C2)cc1 (stereo unspecified) [US20250034135, Compound 058]	–	> 1000 nM	IC50 [3]: < 10 nM
CC(C)c1ccccc1[C@@H]1CN(Cc2cnn(C)c2)CCN1C1CC2(CCN(c3cc(Oc4cnc5[nH]ccc5c4)c(C(=O)NS(=O)(=O)c4ccc(NC[C@H]5CC[C@](C)(O)CC5)c([N+](=O)[O-])c4)cc3F)CC2)C1 [US20250034135, Compound 238]	–	> 500 nM	–
COc1ccc(CN2CCN(C3CC4(CCN(c5ccc(C(=O)NS(=O)(=O)c6ccc(NC[C@H]7CC[C@](C)(O)CC7)c([N+](=O)[O-])c6)c(OC(C=N)Cc6cc[nH]c6)c5)CC4)C3)[C@H](c3ccccc3C(C)C)C2)cc1 (stereo partly specified) [US20250034135, Compound a]	–	–	IC50 (CYP3A4): 2550 nM

Now from value to molecule, other results behind:

IC50 [1]	IC50 [2]	SMILES	further results
< 10 nM	–	COc1ccc(CN2CCN(C3CC4(CCN(c5cc(Oc6cnc7[nH]ccc7c6)c(C(=O)NS(=O)(=O)c6ccc(NCC7(F)CCN(C8COC8)CC7)c([N+](=O)[O-])c6)cc5F)CC4)C3)C(c3ccccc3C(C)C)C2)cc1 (stereo unspecified) [US20250034135, Compound 057]	–
< 10 nM	> 500 nM	COc1ccccc1CN1CCN(C2CC3(CCN(c4cc(Oc5cnc6[nH]ccc6c5)c(C(=O)NS(=O)(=O)c5ccc(NCC6(F)CCOCC6)c([N+](=O)[O-])c5)cc4F)CC3)C2)[C@H](c2ccccc2C(C)C)C1 [US20250034135, Compound 185]	–
< 10 nM	> 500 nM	CC(C)c1ccccc1[C@@H]1CN(Cc2ccccc2F)CCN1C1CC2(CCN(c3cc(Oc4cnc5[nH]ccc5c4)c(C(=O)NS(=O)(=O)c4ccc(NCC5(F)CCOCC5)c([N+](=O)[O-])c4)cc3F)CC2)C1 [US20250034135, Compound 187]	–
< 10 nM	–	CC(C)c1ccccc1[C@@H]1CN(Cc2ccc(F)cc2F)CCN1C1CC2(CCN(c3cc(Oc4cnc5[nH]ccc5c4)c(C(=O)NS(=O)(=O)c4ccc(NCC5(F)CCOCC5)c([N+](=O)[O-])c4)cc3F)CC2)C1 [US20250034135, Compound 191]	–
< 10 nM	–	CC(C)c1ccccc1[C@@H]1CN(Cc2c(F)cccc2F)CCN1C1CC2(CCN(c3cc(Oc4cnc5[nH]ccc5c4)c(C(=O)NS(=O)(=O)c4ccc(NCC5(F)CCOCC5)c([N+](=O)[O-])c4)cc3F)CC2)C1 [US20250034135, Compound 192]	–

— BindingDB's records for patent US20250034135 (Hangzhou Healzen Therapeutics Co., 2025)
